Measured values published in US8114406B2, “Peptides and their utility in modulation of behavior of cells expressing α3β1 integrins” (The United States of America as represented by the …, priority 1999, dated 2012).
Like-named read-outs stand apart in the source and are kept apart here. Where no end group is shown, it is not given here.

What was measured:
[1] = system: MDA-MB-435 breast carcinoma cells; experiment: Inhibition of MDA-MB-435 cell adhesion to immobilized peptide 678 (microscopic adhesion assay); format: cell-based, human
Method: (§1) Adhesion assays of cells other than small cell lung carcinoma (SCLC)-Adhesion was measured on polystyrene or glass substrates coated with peptides or proteins as previously described (Guo et al., 1992). Peptides dissolved in PBS at 0.4 to 50 μM were incubated in polystyrene microliter plate wells overnight at 4° C. The wells were washed 3 times with distilled water. Adsorbed peptide was quantified using the BCA assay (Pierce Chemical) measuring absorbance at 570 and 630 nm as described by the supplier's protocol. The assay for adsorption was calibrated using purified peptide in solution as a standard. After blocking with 1% BSA in Dulbecco's PBS, adhesion assays were performed by adding cells suspended in DMEM (BAE cells) or medium 199 (human cells) containing 1 mg/ml BSA. Cell attachment and spreading was quantified microscopically.

HDME cells [2] = experiment: HDME cell spreading on coated substrates; format: cell-based, human
Method: Spreading was determined microscopically for cells with no additions, in the presence of 10 μM peptide 678, or in the presence of 30 μM of the control peptide 690. Results are presented as mean±SD, n=3. […] The percent spread cells was determined at 60 min.
as §1

BAE cells [3] = details: added in solution
Method: (§2) Briefly, 100 μl of a 5×10^4 cell/ml suspension of BAE cells were seeded in triplicate into 96 well tissue culture plate in DMEM medium containing 1% FCS, 10 ng/ml of FGF2 and peptides at 1-40 μM concentrations. Cells were incubated for 72 h, and proliferation was measured using the Celltiter tetrazolium assay (Promega). […] Proliferation was determined at 72 h, and is presented as a percent of the control, mean±S.D., n=3 for experimental points and n=6 for control. […] FIG. 19E: HDME cell proliferation in MCDB growth medium with 5% FCS was determined in the presence of 10 ng/ml FGF2 and the indicated concentrations of TSP1 added in the medium (Δ) or immobilized on the substrate (●) or in wells coated with the indicated concentrations of peptide 678 (●).
(§3) Cell proliferation was measured using the Cell-Titer colorimetric assay (Promega) as previously described (Vogel et al., 1993). A 100 μl volume of BAE cell suspension at 50,000 cells/ml in DMEM containing 1% FBS and supplemented with 10 ng/ml FGF2 was plated in triplicate in 96 well tissue culture plates either in the presence of peptides in solution or in wells that were pre-coated with 100 μl of the peptides at 40° C. overnight and aspirated just before adding cells. Cells were grown for 72 hours at 37° C. in a humidified incubator with 5% CO2. […] HDME cell proliferation was measured in MCDB growth medium without heparin, VEGF, or FGF2.

HDME cells [4] = experiment: HDME cell proliferation; format: cell-based, human
Method: as §2, §3

MDA-MB-435 cells = experiment: MDA-MB-435 cell chemotaxis in modified Boyden chambers; format: cell-based, human; details: peptide in lower well; 7 h
Method: FIGS. 10A and 10B display the measurement of MDA-MB-435 cell chemotaxis. Panel A: Dose-dependence for stimulation of MDA-MB-435 cell motility by peptide 678 added to the lower well of a modified Boyden chamber. Cells migrated to the lower surface of an 8 μm pore polycarbonate filter were quantified microscopically after 7 h, mean±SD, n=3 for a representative experiment. […] Chemotaxis of untreated cells (striped bars) or cells treated with 10 nM IGF1 in the upper chamber (solid bars) was determined after 7 h and is presented as mean±S.D., n=3.

[5] = system: MDA-MB-435 breast carcinoma cells
Method: MDA-MB-435 cell adhesion to microliter plate wells coated with 5 uM peptide 678 was determined in the presence of the indicated concentrations of soluble carboxamidomethyl-peptide 716 or peptide 716 covalently linked to FICOLL™ as previously described (Guo et al., 1997). After washing twice to remove unattached cells, adherent cells were quantified by detection of cellular hexosaminidase using p-nitrophenyl-N-acetylglucosaminide as substrate. Released p-nitrophenol was detected by absorbance at 405 nm. Results are mean+/−SD, n=3.
In this case, the adherent cells are quantified by detection of cellular hexosaminidase using p-nitrophenyl-N-acetylglucosaminidine as substrate. Released p-nitrophenol is detected by absorbance at 405 nm.

[6] = system: chick chorioallantoic membrane (CAM) angiogenesis; experiment: Chick chorioallantoic membrane (CAM) angiogenesis assay; format: in vivo, chicken; details: for Angiogenic response (% inhibition): relative to control gels, mean ± SD
Method: Fertilized Leghorn chicken eggs were obtained from Ramona Duck farm (Westminster, Calif.). At day 3 of development, the embryos were placed on 100 mm petri dishes. Assays were performed as previously described (Iruela-Arispe et al., 1999). […] Peptides were filtered on Centricon P100 prior to their analysis on the CAM assays to eliminate traces of endotoxin. Pellets were applied to the outer ⅓ of the CAM, and the assay was performed for 24 h. Detection of capillary growth was done by injection of FITC-dextran in the bloodstream and observation of the pellets under a fluorescent inverted microscope. Positive controls (growth factors and vehicle), as well as negative controls (vehicle alone) were placed in the same CAM and used as reference of 100% stimulation or baseline inhibition (0%), and response to the peptides was determined according to these internal controls. Assays were performed in duplicate in each CAM and in four independent CAMs (total of 8 pellets).

HUVEC = HUVEC spreading on coated substrates; format: cell-based, human; details: for percent spread HUVEC on immobilized substrate: data not shown
Method: FIGS. 14A, 14B and 14C display α3β1 and αvβ3 integrin-mediated spreading of endothelial cells on thrombospondin-1. […] Results are expressed as percent of the response for untreated cells, mean±S.D., n=3.
as §1

BAE cells [7] = system: BAE cells
Method: Direct adhesion of BAE cells to the adsorbed peptides or uncoated substrate (control) are presented as mean±SD, n=3. […] Two flasks of BAE cells were grown to confluence. One flask was harvested and replated in fresh medium at 25% confluency. Fresh medium was added at the same time to the second flask. After 16 h, cells from both flasks were dissociated using EDTA and adhesion was measured on substrates coated with 40 μg/ml TSP1, 10 μg/ml vitronectin, 20 μg/ml plasma fibronectin, or 5 μg/ml type I collagen. The percent spread cells after 60 min is presented as mean±SD, n=3 for a representative experiment.

HUVE cells = experiment: HUVE cell proliferation; format: cell-based, human
Method: Briefly, 100 μl of a 5×10^4 cell/ml suspension of BAE cells were seeded in triplicate into 96 well tissue culture plate in DMEM medium containing 1% FCS, 10 ng/ml of FGF2 and peptides at 1-40 μM concentrations. Cells were incubated for 72 h, and proliferation was measured using the Celltiter tetrazolium assay (Promega). […] Proliferation was determined at 72 h, and is presented as a percent of the control, mean±S.D., n=3 for experimental points and n=6 for control.
Cell proliferation was measured using the Cell-Titer colorimetric assay (Promega) as previously described (Vogel et al., 1993). A 100 μl volume of BAE cell suspension at 50,000 cells/ml in DMEM containing 1% FBS and supplemented with 10 ng/ml FGF2 was plated in triplicate in 96 well tissue culture plates either in the presence of peptides in solution or in wells that were pre-coated with 100 μl of the peptides at […] overnight and aspirated just before adding cells. Cells were grown for 72 hours at 37° C. in a humidified incubator with 5% CO2. HUVEC proliferation was measured by the same protocol but using medium 199 containing 5% FCS without heparin. HDME cell proliferation was measured in MCDB growth medium without heparin, VEGF, or FGF2.

OH1 SCLC cells = format: cell-based, human; details: 72 h
Method: Net, proliferation was determined by the CellTiter assay (Promega) and is presented as mean±SD, n=3. […] The cells were fixed and photographed using Nomarski optics. Bar=100 μm. […] Panel E: α3β1 Integrin ligands cooperate with EGF to inhibit OH1 cell proliferation. […] Net proliferation is presented as a percent of the -EGF control (mean±SD, n=3 for treated groups and n=6 for control groups).
Proteins and peptides were immobilized on Nunc Maxisorp 96 well plates by overnight incubation with the proteins or peptides dissolved in 50 μl of sterile Dulbecco's PBS. The supernatant fluid was removed, and the wells were incubated for 30 min. in DPBS containing 1% BSA. OH1 cells (1×10^4/well) were added in RPMI containing 15% FCS and incubated for 72 h at 37° in 5% CO2. For assessing inhibition by soluble proteins or peptides, OH1 cells were grown in suspension in Nunclon 96 well tissue culture plates using the same medium.

## FQGVLQNVRFVF [Peptide 678]
[1]; Table 3, 5 μM peptide 678, read-out: IC50 (μM), inhibition of MDA-MB-435 cell adhesion to immobilized peptide 678
  IC50: 3.5 µM
[1]; microscopic adhesion assay, polystyrene coated with 5 μM peptide 678, peptides in solution, read-out: Inhibition of peptide 678 (IC50)
  IC50: 3.5 µM
HDME cells [2]; cells from sparse culture
  percent spread HDME cells on immobilized substrate: 28%
HDME cells [2]; cells harvested from a confluent monolayer
  percent spread HDME cells on immobilized substrate: No spreading
BAE cells [3]
  inhibition of BAE cell proliferation: inhibited
HDME cells [4]
  HDME cell proliferation after plating on immobilized substance: enhancement
MDA-MB-435 cells
  concentration of maximal chemotactic response: 10 µM
[5]
  IC50: 15 µM
[6]; 5 μM peptide
  Angiogenic response (% inhibition): 2 ± 5%
[6]; 10 μM peptide
  Angiogenic response (% inhibition): 17 ± 7%
[6]; 20 μM peptide
  Angiogenic response (% inhibition): 37 ± 9%
[6]; 20 micromolar
  angiogenesis stimulated by FGF2: 68±5 % of control
  angiogenesis stimulated by VEGF: 73±7 % of control
  angiogenesis stimulated by a mixture of both growth factors: 59±5 % of control
HUVEC
  inhibition of HUVEC spreading on vitronectin: not significantly inhibited
HUVEC; 20 μM peptide 678 (FIG. 14B)
  inhibition of HUVEC spreading on TSP1: 70±7%
HUVEC; confluent cells
  percent spread HUVEC on immobilized substrate: 3±1%
HUVEC; sparse cultures
  percent spread HUVEC on immobilized substrate: 12±3%
BAE cells [7]
  inhibition of BAE cell spreading on fibronectin or vitronectin substrates: did not inhibit
BAE cells [7]; 30 μM (FIG. 12)
  inhibition of BAE spreading on fibronectin: did not inhibit
BAE cells [7]; peptide added in solution
  inhibition of density-dependent BAE spreading on intact TSP1 and the TSP1 peptide: inhibited
BAE cells [7]; peptides adsorbed at 10 μM (FIG. 11A)
  endothelial cell attachment on immobilized peptide: attached specifically
HUVE cells; added in solution
  HUVE cell proliferation, peptide in solution: significantly inhibited
HUVE cells; immobilized on the substrate
  HUVE cell proliferation on immobilized peptide: increased their proliferation
OH1 SCLC cells
  IC50: 6 µM
